# In US7001900B2, “Azabicyclic compounds for the treatment of disease” (Pfizer Inc., priority 2002, dated 2006):
# Target: T1, chimeric α7-5HT3 ion channel (UniProt P23979+P36544, M226I/T225I)
# T1 construct: expressed in transfected cells
# Assay: Cell-based FLIPR assay of agonist activity on the chimeric α7-5HT3 receptor (Calcium Green fluorescence, intracellular calcium)
# Conditions: SH-EP1 cells expressing chimeric α7-5HT3 ion channel
# Text: The cDNA encoding the N-terminal 201 amino acids from the human α7 nAChR that contain the ligand binding domain of the ion channel was fused to the cDNA encoding the pore forming region of the mouse 5HT3 receptor as described by Eisele J L, et al., Chimacric nicotinic-serotonergic receptor combines distinct ligand binding and channel specificities, Nature (1993), December 2;366(6454):479–83, and modified by Groppi, et al., WO 00/73431. The chimeric α7–5HT3 ion channel was inserted into pGS 175 and pGS 179 which contain the resistance genes for G-418 and hygromycin B, respectively. […]
# To assay the activity of the α7–5HT3 ion channel, cells expressing the channel were plated into each well of either a 96 or 384 well dish (Corning #3614) and grown to confluence prior to assay. […] The activity of compounds on the chimeric α7–5HT3 ion channel was analyzed on FLIPR. […] Fluorescent emission was measured above 525 nanometers with an appropriate F-stop to maintain a maximal signal to noise ratio. Agonist activity of each compound was measured by directly adding the compound to cells expressing the chimeric α7-5HT3 ion channel and measuring the resulting increase in intracellular calcium that is caused by the agonist-induced activation of the chimeric ion channel. […]
# T1 sequence (P36544+P23979 fused P36544:T225I/P36544:M226I): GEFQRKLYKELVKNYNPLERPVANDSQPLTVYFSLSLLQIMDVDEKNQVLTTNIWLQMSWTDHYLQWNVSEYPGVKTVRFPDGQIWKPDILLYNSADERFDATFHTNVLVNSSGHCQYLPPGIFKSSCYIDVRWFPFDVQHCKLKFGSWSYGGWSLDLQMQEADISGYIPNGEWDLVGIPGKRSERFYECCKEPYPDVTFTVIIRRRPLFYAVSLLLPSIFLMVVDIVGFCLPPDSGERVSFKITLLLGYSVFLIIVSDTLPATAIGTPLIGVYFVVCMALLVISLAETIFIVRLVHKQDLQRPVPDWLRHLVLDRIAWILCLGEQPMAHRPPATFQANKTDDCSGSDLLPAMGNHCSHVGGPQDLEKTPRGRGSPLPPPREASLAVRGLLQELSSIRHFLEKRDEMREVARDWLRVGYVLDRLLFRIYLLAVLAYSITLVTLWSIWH
structure (smiles),measurement,value
"Cl.O=C(N[C@H]1CN2CCC1CC2)c1ccc2cccc(O)c2n1 [Example 8, N-[(3R)-1-azabicyclo[2.2.2]oct-3-yl]-8-hydroxyquinoline-2-carboxamide hydrochloride]",EC50 (effective concentration needed to cause a 50% maximal increase in intracellular calcium),inactive
